Reference: patent US9175077B2, “Nucleic acids encoding biologically active polypeptides derived from a novel early stage pregnancy factor designated maternin (MA)” (NOBEL BIOSCIENCES LLC, priority 1999, dated 2015)

Tests used:
Ewing's sarcoma = assay: Confocal microscopy apoptosis; type: cell-based, human; details: 200 ng/ml; 24 hrs
Experimental: (§1) More extensive studies of the effects of MA and with truncated synthetic forms of MA (MAS) on a wide range of other human tumor cells were carried out using three-dimensional confocal microscopy. Cells were cultured and then seeded onto gelatinized glass chamber slides and incubated 24 hrs with the various test materials. The slides were then fixed with formalin and treated serially with Triton X-100 (0.01%) for 10 min at 25°, 0.4 ug/ml fluorescein isothiocyanate (FITC)-labeled Phalloidin (Sigma Chem. Co.) at room temperature for 30 min to bind actin, washed with PBS and the DNA stained with Propidium iodide (PI) (0.5 ug·ml) (Sigma Chemical Co.), for 15 min. The stained slides were washed and mounted on slow fade (Molecular Probes, Inc., Eugene, Oreg.) and examined through a dual emission filter XF53 (Omega, Inc., Brattlesboro, Va.) by fluorescent microscopy. In some experiments only DNA staining was performed. In these instances Triton X-100 was not used. The slides were stained with PI and examined for cell morphology and chromatin degradation under 3D confocal microscopy.

KS Y-1 cells = assay: Confocal microscopy apoptosis; type: cell-based, human; details: 200 ng/ml; 24 hrs
Experimental: as §1

[1] = tested on: carcinoma of the breast HTB124; assay: Confocal microscopy apoptosis; type: cell-based, human; details: 200 ng/ml; 24 hrs
Experimental: as §1

carcinoma of the colon = assay: Confocal microscopy apoptosis; type: cell-based, human; details: 200 ng/ml; 24 hrs
Experimental: as §1

[2] = tested on: carcinoma of the kidney HTB46; assay: Confocal microscopy apoptosis; type: cell-based, human; details: 200 ng/ml; 24 hrs
Experimental: as §1

[3] = tested on: carcinoma of the lung HTB184; assay: Confocal microscopy apoptosis; type: cell-based, human; details: 200 ng/ml; 24 hrs
Experimental: as §1

[4] = tested on: carcinoma of the pancreas CRL 1682; assay: Confocal microscopy apoptosis; type: cell-based, human; details: 200 ng/ml; 24 hrs
Experimental: as §1

fibrosarcoma 4TB166 = assay: Confocal microscopy apoptosis; type: cell-based, human; details: 200 ng/ml; 24 hrs
Experimental: as §1

gliobastoma HTB16 = assay: Confocal microscopy apoptosis; type: cell-based, human; details: 200 ng/ml; 24 hrs
Experimental: as §1

[5] = tested on: leukemia and lymphoma cell lines: HUT78, DAVDI, HG, SULTAN, T-cell lymphoma; assay: Confocal microscopy apoptosis; type: cell-based, human; details: 200 ng/ml; 24 hrs
Experimental: as §1

melanoma HTB67 = assay: Confocal microscopy apoptosis; type: cell-based, human; details: 200 ng/ml; 24 hrs
Experimental: as §1

[6] = tested on: prostate carcinoma cell line PC3; assay: Confocal microscopy apoptosis; type: cell-based, human; details: 200 ng/ml; 24 hrs
Experimental: as §1

[7] = tested on: prostate carcinoma cell line PC4; assay: Confocal microscopy apoptosis; type: cell-based, human; details: 200 ng/ml; 24 hrs
Experimental: as §1

[8] = Lethally irradiated rats and mice; details: treated at time of radiation, 3×/week for 4 weeks
Experimental: In order to determine in vivo relevance of the prohematopoietic effects of MA treated rats and mice under several conditions of bone marrow suppression. First, the effects of native MA and pMA and of the synthetic 15-mer MAS1 were treated for their capacity to reduce or prevent the effects of lethal doses of gamma irradiation. […] MA, pMA, MAS1, and various control polypeptides were given 48 and 24 hrs before, during, or 24 hrs after radiation. The animals treated prior to radiation received either 100 ng vs. 1 ug (rats) or 50 ng vs. 500 ng (mice) as 2 subcutaneous injections.
It is not yet possible to determine the precise molar dose of pMA because of less certainty on its full-length sequence.
To ascertain that the MA effect did promote hematopoiesis in these animals we examined the bone marrow for cellularity and colony formation and determined peripheral blood counts.

[9] = Lethal dose taxol in Sprague-Dawley rats; type: in vivo; details: for survival of pretreated animals: low dose, two doses 24 and 48 hrs before taxol; for survival maintained to day 80 / survival on day 5: therapy maintained 28 days; for survival on day 5: low or high dose
Experimental: Sprague-Dawley rats were given taxol in large lethal doses, 4.5 mg in one I.P. inoculation. […] Bone marrow suppression can also be a side effect of the clinical use of taxol.^179 As in the radiation experiments, either MA, pMA, MAS1, or various polypeptide controls were given subcutaneously only in two doses 24 and 48 hrs before taxol treatment or were given 3×/week for 4 weeks. […]

Acutely bled rats = type: in vivo, Sprague-Dawley rats; details: i.p. 24 and 48 hrs after 35-40% blood loss
Description: To delineate the effects of MA on hematopoiesis in the absence of any external bone marrow suppression, blood (35-40% of total blood volume) was removed from five Sprague-Dawley rats by intracardiac puncture. […] Each panel illustrates the mean values for the three animals treated with MAS1. Thus, MA and related derivatives have potent pro-hematopoietic effects.

[10] = tested on: human primitive hematopoietic stem cells; assay: Long term cultures (LTC-IC, stroma-free) of CD34+, CD38− cells from human BMMC; type: cell-based
Experimental: In the human system, a long-term culture-initiating assay (LTC-IC) can be used to detect cells that can generate myeloid clonogenic cells (CFC/colony forming cells) in long-term cultures for a minimum of 5 weeks. Bone marrow stromal was produced by culturing 107 fresh BM-MNC in a T25 flash for at least 2 weeks in 5 mL stromal medium; 12.5% horse [HS] and 12.5% fetal calf serum [FCS]; both from hyclone [Logan, Utah], Iscove's modified Dulbecco's medium [IMDM, GIBCO-BRL], 2-mercaptoethanol [Sigma, st. Louis, Mo.], 10^−6 mol/L hydrocortisone [Sigma] and penicillin/streptomycine.
One or 2 days before co-cultures, bone marrow stroma was irradiated with 15Gy and plated at 7×10^3/cm^2 in 24-well plates to form pre-established stromal layers for the long-term cultures. Limiting dilution was 1 to 1000 CD34+ bone marrow/cord blood cells and equivalent aliquots, i.e., limiting dilutions of the cells grown in long-term cultures stroma-free cultures after 2 to 20 weeks were seeded on top of the irradiated bone marrow stroma in culture medium containing IMDM, 12.5% HS, 12.5% FCS, 2-mercptoethanol, and 10^−6 mon-hydrocortisone for 5 weeks LTC-IC assay period. Non-adherent cells were removed from the cultures, combined with the corresponding trypsinized adherent cells, washed and assayed for colony forming units (CFU-Cs) in methylcellulose medium containing 1.3% methylcellulose (Fluka Chemilka Biochemika, buck\hs, Switzerland), 30% FCS, EPO (3 U/ml), IL-3 (20 ng/ml), G-CSF (20 ng/ml), GM-CSF (20 ng/ml) and KL (c-kit, 50 ng/ml). These cultures were incubated at 37° C. and colonies were scored 2 to 3 weeks later. LTC-IC enumeration was based on the number of CFU-C scored in the limiting assays [LDA] and another technique.
Stroma-free long-term cultures were performed as follows. 2 to 10×10^3 CD34+/CD34^−CD38^− from bone marrow/CB/PBMC cells were cultured in quadrutriplicate flat bottomed 24 well plates in 1 ml to of IMDM supplemented with 10% FCS and the following cytokines: IL-3 (10 ng/ml), IL-6 (10 ng/ml), KL [c-kit 50 ng/ml, FL (50 ng/ml) and TPO (10 U/ml), which added, alone or in combination of two or more factors, to each series of microwells twice a week. The wells were grown at 37° C. and share a number of features with in vivo murine long-term repopulating cells. These include assay for cobblestone areas colony forming cells (CAFC), high proliferative potentials colony-forming cells (HPP-CFC), CFU-GEMM, CFU-B1 (blast colony forming units).

human tumor cells = type: cell-based; details: controls at equimolar or 5 to 10× greater concentrations
Experimental: The anti-tumor activities of MA were assessed in several in vitro and in vivo systems using published methods.^166 In vitro studies were with a wide variety of human tumor cell lines as well as short-term cultures of cells from biopsy samples obtained from tumors. The assays included effects of MA on colony formation, cell number and viability (trypan blue), and apoptosis. Four measures of microscopy were used. In vivo studies included the effects of MA on tumors induced in immunodeficient mice by xenotransplanted various human neoplastic cells, spontaneous neoplasms of immuno-competent mice and rats, and a few standard tumors in immuno-competent mice. Representative examples are presented.
Cells (5×10^5/ml) were seeded in modified Eagle's medium supplemented with 10% FCS, 10% conditioned medium form PHA stimulated human lymphocytes, 2 mM glutamine in 0.8% V/V methylcellulose with or without various treatments in a final volume of 1.0 ml. Then 0.1 ml aliquots were seeded in 96 well flat bottom microtest plates and incubated at 37° C. in 5% CO2 in air for 7 days. Aggregates containing 50 cells or more were scored as colonies.
5×10^5 cells were seeded in triplicate on 24 gelatin coated wells in conditions as described for Panel A and treated with the indicated test materials. After 3 days the cells were dislodged from their monolayers by gentle pipetting with cell dissociation buffer (Life Technologies), counted after trypan blue staining and aliquots examined for Annexin V staining by indirect IFA […].
Studies of the anti-tumor cell effects of MA were extended to other carcinomas, melanoma, some hematopoietic tumors, and carcinomas of the colon, prostate, breast, lung, brain, pancreas, and kidney-using cell lines from these tumors. […] Many more types of tumor cells were studied utilizing other assays (see below).

[11] = tested on: primary human tumor cells; assay: Short-term cultured primary human tumor cells, growth and apoptosis; type: cell-based; details: 200 ng/ml; 3 days culture; 10% serum
Description: Because cell lines might be more susceptible to growth inhibition and apoptosis, the effects of MA on short-term cultured human tumor cells were investigated. The cells were obtained from biopsied specimens and immediately cultured (primary cultures). The results were similar to the results with tumor cell lines. […] FIG. 3, Panels A and B are representative results with primary breast and prostate carcinomas respectively. These pro-apoptotic effects of MA on human tumor cells were with 10% serum rather than the lower concentrations sometimes used to make cells more susceptible to apoptosis.
More extensive studies of primary human tumor cells were carried out utilizing confocal microscopy.
With the exception of the kidney carcinoma, which was a biopsy sample direct from the tumor, the samples were from pleural effusions which developed after metastasis to the lung. The breast, prostate, and colon carcinomas were freshly obtained and immediately cultured, whereas the lung and kidney carcinomas went through 22 and 18 passes respectively before they were used in these studies. All cells were examined after 3 days culture in the presence or absence of MA (200 ng/ml) or other treatments. […]

HIV-1 gene expression = assay: HIV-1 transgenic mice, pups feeding from treated mothers; type: in vivo
Description: The transgenic mice contain 5.1 kb of the HIV-1 proviral genome, lacking gag and pol genes and 2.3 kb of vector.^172 The newly developed transgenic rat contains the same HIV-1 sequences and vector.
Twenty-four hours after birth the mothers were either inoculated subcutaneously daily for 10 days or received an implanted osmotic pump delivering 30-150 pmoles of either native or synthetic MA or pMA. Various control polypeptides were used at equimolar or vast molar excess. The newborn pups were then allowed to feed from the foster mother breast milk over the entire period. Since the animals are at risk from needle inoculation, breastfeeding was the chosen route for MA administration.
In these experiments total RNA was extracted from samples of skin RNA206 10 days after birth of MA treated and untreated mice. One ug of RNA was reverse transcribed into cDNA using random hexamer primer and […] reverse transcriptase (Life Technologies, Inc.) in a final vol. Of 30 ul. Three ul of each reaction was used for PCR amplification of the HIV-1 gene sequences (env, tat, nef, and rev) as described […], and glyceraldehyde 3-phosphate dehydrogenase (GAPDH) was amplified from each sample for normalization. After 25 cycles, 10% of the products were resolved by electrophoresis on 2% agarose gels, transferred to nitrocellulose membranes by Southern blotting, and hybridized to fluorescein isthiocyanate-labeled oligonucleotide probes complementary to internal sequences of the amplicons […]. Bound probes were detected by chemiluminescence (Amersham) and relative mRNA levels determined by densitrometry after normalization with GAPDH mRNA levels.

## VRFESIRLPGCPRGV (listed as Homo sapiens) [MAS1]
Ewing's sarcoma
  induction of apoptosis: induced apoptosis
KS Y-1 cells
  induction of apoptosis: induced apoptosis
[1]
  induction of apoptosis: induced apoptosis
Carcinoma of the colon
  induction of apoptosis: induced apoptosis
[2]
  induction of apoptosis: induced apoptosis
[3]
  induction of apoptosis: induced apoptosis
[4]
  induction of apoptosis: induced apoptosis
Fibrosarcoma 4TB166
  induction of apoptosis: induced apoptosis
Gliobastoma HTB16
  induction of apoptosis: induced apoptosis
[5]
  induction of apoptosis: induced apoptosis
Melanoma HTB67
  induction of apoptosis: induced apoptosis
[6]
  induction of apoptosis: induced apoptosis
[7]
  induction of apoptosis: induced apoptosis
[8]; higher dose, over 100 days
  survival: 100%
[8]; lowest doses
  survival: 80%
[9]
  survival of pretreated animals: Sixty-percent
  survival on day 5: 100%
[9]; high dose (1000 ng)
  survival maintained to day 80: ~80%
[9]; low dose (100 ng)
  survival maintained to day 80: about 60%
Acutely bled rats
  recovery of peripheral blood cells: prompt recovery
[10]
  Rx MAS1: % of CD1: 35%
  Rx MAS1: % of CD68: 27%

## pMA: natural peptide 38 amino acids in length, β-hCG 55-92 (SEQ ID NO: 3) (VVCNYRDVRFESIRLPGCPRGVNPVVSYAVALSCQCAL; listed as Homo sapiens)
Human tumor cells
  inhibition of growth / induction of apoptosis of neoplastic cells: induce apoptotic death
[11]
  growth inhibition and apoptosis of primary human tumor cells: effective
HIV-1 gene expression; 30-150 pmoles
  weight over the ten day period: quadrupled their weight
HIV-1 gene expression; mothers treated, pups breast fed
  survival / development of pups (qualitative): survived
HIV-1 gene expression; mouse, in vivo
  HIV-1 viral expression in tissues: marked inhibition of viral expression
[8]; higher dose, over 100 days
  survival: 100%
[9]
  survival of pretreated animals: Sixty-percent
  survival on day 5: 100%
[9]; high dose (1000 ng)
  survival maintained to day 80: ~80%
[9]; low dose (100 ng)
  survival maintained to day 80: about 60%
